In PubChem BioAssay (NCI):
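Step 1: Grow cells in 96-well plates. Step 2: Expose to compound for 48 hours at 5 concentrations. Step 3: Interpolate endpoints linearly; if unreached, use highest concentration. The concentration for 50% growth inhibition is given as GI50. TGI: concentration producing complete growth inhibition.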

How the values were obtained:
Experiment in all cases: NCI tumour cell line growth inhibition, 48 h
KM12 colon = tested on: KM12 colon
RPMI-8226 leukemia = tested on: RPMI-8226 leukemia
NCI-H460 lung = tested on: NCI-H460 lung
SR leukemia = tested on: SR leukemia
RXF 393 renal = tested on: RXF 393 renal
SK-OV-3 ovarian = tested on: SK-OV-3 ovarian
ACHN renal = tested on: ACHN renal
SK-MEL-28 melanoma = tested on: SK-MEL-28 melanoma
COLO 205 colon = tested on: COLO 205 colon
OVCAR-4 ovarian = tested on: OVCAR-4 ovarian
UACC-62 melanoma = tested on: UACC-62 melanoma
NCI-H23 lung = tested on: NCI-H23 lung
SNB-19 CNS = tested on: SNB-19 CNS
SN12C renal = tested on: SN12C renal
HCT-116 colon = tested on: HCT-116 colon
HCT-15 colon = tested on: HCT-15 colon
HL-60(TB) leukemia = tested on: HL-60(TB) leukemia
T-47D breast = tested on: T-47D breast
MDA-MB-468 breast = tested on: MDA-MB-468 breast
M14 melanoma = tested on: M14 melanoma
HOP-62 NSCLC = tested on: HOP-62 NSCLC
U251 CNS = tested on: U251 CNS
LOX IMVI melanoma = tested on: LOX IMVI melanoma
SK-MEL-5 melanoma = tested on: SK-MEL-5 melanoma
786-0 renal = tested on: 786-0 renal
CAKI-1 renal = tested on: CAKI-1 renal
MOLT-4 leukemia = tested on: MOLT-4 leukemia
A549 NSCLC = tested on: A549 NSCLC
NCI/ADR-RES ovarian = tested on: NCI/ADR-RES ovarian
A498 renal = tested on: A498 renal
UACC-257 melanoma = tested on: UACC-257 melanoma
MALME-3M melanoma = tested on: MALME-3M melanoma
DU-145 prostate = tested on: DU-145 prostate
HT29 colon = tested on: HT29 colon
OVCAR-3 ovarian = tested on: OVCAR-3 ovarian
K-562 leukemia = tested on: K-562 leukemia
BT-549 breast = tested on: BT-549 breast
IGROV1 ovarian = tested on: IGROV1 ovarian
SF-295 CNS = tested on: SF-295 CNS
NCI-H522 lung = tested on: NCI-H522 lung
NCI-H226 lung = tested on: NCI-H226 lung
CCRF-CEM leukemia = tested on: CCRF-CEM leukemia
EKVX NSCLC = tested on: EKVX NSCLC
SF-539 CNS = tested on: SF-539 CNS
HS 578T breast = tested on: HS 578T breast
HOP-92 NSCLC = tested on: HOP-92 NSCLC
PC-3 prostate = tested on: PC-3 prostate
MDA-MB-435 = tested on: MDA-MB-435
SW-620 colon = tested on: SW-620 colon
HCC-2998 colon = tested on: HCC-2998 colon
OVCAR-8 ovarian = tested on: OVCAR-8 ovarian
SF-268 CNS = tested on: SF-268 CNS
TK-10 renal = tested on: TK-10 renal
OVCAR-5 ovarian = tested on: OVCAR-5 ovarian
MCF7 breast = tested on: MCF7 breast

## Cc1nn(-c2ccccc2)c2nc(C)n(CC(=O)N/N=C/c3ccccc3O)c(=O)c12
KM12 colon
  GI50: 4.12 µM
  TGI: > 100 µM
RPMI-8226 leukemia
  GI50: 5.53 µM
  TGI: 48.4 µM
NCI-H460 lung
  GI50: 3.59 µM
  TGI: 16.2 µM
SR leukemia
  GI50: 2.43 µM
  TGI: 10.8 µM
RXF 393 renal
  GI50: 4.92 µM
  TGI: 24.1 µM
SK-OV-3 ovarian
  GI50: 6.5 µM
  TGI: 28.5 µM
ACHN renal
  GI50: 2.62 µM
  TGI: 14.7 µM
SK-MEL-28 melanoma
  GI50: 4.58 µM
  TGI: 33.7 µM
COLO 205 colon
  GI50: 2.83 µM
  TGI: 14.9 µM
OVCAR-4 ovarian
  GI50: 3.18 µM
  TGI: 42.8 µM
UACC-62 melanoma
  GI50: 3.02 µM
  TGI: 12.5 µM
NCI-H23 lung
  GI50: 4.62 µM
  TGI: 22.4 µM
SNB-19 CNS
  GI50: 7.44 µM
  TGI: 39.2 µM
SN12C renal
  GI50: 5.64 µM
  TGI: 46 µM
HCT-116 colon
  GI50: 4.85 µM
  TGI: 18.9 µM
HCT-15 colon
  GI50: 2.26 µM
  TGI: > 100 µM
HL-60(TB) leukemia
  GI50: 2.13 µM
  TGI: 7.52 µM
T-47D breast
  GI50: 4.41 µM
  TGI: 36.9 µM
MDA-MB-468 breast
  GI50: 3.36 µM
  TGI: 19.4 µM
M14 melanoma
  GI50: 2.89 µM
  TGI: 15.6 µM
HOP-62 NSCLC
  GI50: 4.63 µM
  TGI: 21.4 µM
U251 CNS
  GI50: 3.93 µM
  TGI: 19.6 µM
LOX IMVI melanoma
  GI50: 1.78 µM
  TGI: 14 µM
SK-MEL-5 melanoma
  GI50: 3.75 µM
  TGI: 19.4 µM
786-0 renal
  GI50: 6.16 µM
  TGI: 31.8 µM
CAKI-1 renal
  GI50: 4.93 µM
  TGI: 26.2 µM
MOLT-4 leukemia
  GI50: 2.59 µM
  TGI: 10.7 µM
A549 NSCLC
  GI50: 6.12 µM
  TGI: 21.1 µM
NCI/ADR-RES ovarian
  GI50: 3.79 µM
  TGI: 17.9 µM
A498 renal
  GI50: 19.3 µM
  TGI: 83.1 µM
UACC-257 melanoma
  GI50: 5.46 µM
  TGI: 31.3 µM
MALME-3M melanoma
  GI50: 4.33 µM
  TGI: 30 µM
DU-145 prostate
  GI50: 6.32 µM
  TGI: > 100 µM
HT29 colon
  GI50: 4.91 µM
  TGI: 20.5 µM
OVCAR-3 ovarian
  GI50: 2.66 µM
  TGI: 28 µM
K-562 leukemia
  GI50: 3.48 µM
  TGI: > 100 µM
BT-549 breast
  GI50: 3.74 µM
  TGI: 25.4 µM
IGROV1 ovarian
  GI50: 6.36 µM
  TGI: 66.3 µM
SF-295 CNS
  GI50: 4.79 µM
  TGI: 22.6 µM
NCI-H522 lung
  GI50: 3.4 µM
  TGI: 22.2 µM
NCI-H226 lung
  GI50: 12.9 µM
  TGI: 38.9 µM
CCRF-CEM leukemia
  GI50: 2.09 µM
  TGI: 16.8 µM
EKVX NSCLC
  GI50: 2.55 µM
  TGI: 17 µM
SF-539 CNS
  GI50: 4.46 µM
  TGI: 26.9 µM
HS 578T breast
  GI50: 9.4 µM
  TGI: 70.9 µM
HOP-92 NSCLC
  GI50: 3.29 µM
  TGI: 20.6 µM
PC-3 prostate
  GI50: 4.47 µM
  TGI: 29.3 µM
MDA-MB-435
  GI50: 8.63 µM
  TGI: > 100 µM
SW-620 colon
  GI50: 4.22 µM
  TGI: > 100 µM
HCC-2998 colon
  GI50: 4.29 µM
  TGI: 27.6 µM
OVCAR-8 ovarian
  GI50: 3.86 µM
  TGI: 21.1 µM
SF-268 CNS
  GI50: 3.31 µM
  TGI: > 100 µM
TK-10 renal
  GI50: 7.5 µM
  TGI: 45.4 µM
OVCAR-5 ovarian
  GI50: 8.89 µM
  TGI: 51.4 µM
MCF7 breast
  GI50: 3.62 µM
  TGI: 31.1 µM
